Earlier results as cited in patent US20120283175A1, “ANTIBACTERIAL COMPOSITIONS” (Achaogen, Inc., priority 2009, published 2012).

System: E. coli strain ATCC 25922
Conditions: reported in US 2004-229955A1; cited from earlier work

## Cc1cccc(CNCC(=O)Nc2ccc(C#CC#Cc3ccc(C(=O)N[C@@H](CN)C(=O)NO)cc3)cc2)c1 [N-[(1S)-1-(aminomethyl)-2-(hydroxyamino)-2-oxoethyl]-4-(4-{4-[({[(3methylphenyl)methyl]amino}acetyl)amino]phenyl}buta-1,3-diynyl)benzamide]
  synergy with erythromycin: strong synergy
